Experimental findings from BindingDB's records for PubMed 36332550 (Peking Union Medical College, 2022) are described below.

In test [1] the target is T1, Zinc finger protein GLI1 (Homo sapiens, UniProt P08151).
T1 sequence (P08151 whole entry): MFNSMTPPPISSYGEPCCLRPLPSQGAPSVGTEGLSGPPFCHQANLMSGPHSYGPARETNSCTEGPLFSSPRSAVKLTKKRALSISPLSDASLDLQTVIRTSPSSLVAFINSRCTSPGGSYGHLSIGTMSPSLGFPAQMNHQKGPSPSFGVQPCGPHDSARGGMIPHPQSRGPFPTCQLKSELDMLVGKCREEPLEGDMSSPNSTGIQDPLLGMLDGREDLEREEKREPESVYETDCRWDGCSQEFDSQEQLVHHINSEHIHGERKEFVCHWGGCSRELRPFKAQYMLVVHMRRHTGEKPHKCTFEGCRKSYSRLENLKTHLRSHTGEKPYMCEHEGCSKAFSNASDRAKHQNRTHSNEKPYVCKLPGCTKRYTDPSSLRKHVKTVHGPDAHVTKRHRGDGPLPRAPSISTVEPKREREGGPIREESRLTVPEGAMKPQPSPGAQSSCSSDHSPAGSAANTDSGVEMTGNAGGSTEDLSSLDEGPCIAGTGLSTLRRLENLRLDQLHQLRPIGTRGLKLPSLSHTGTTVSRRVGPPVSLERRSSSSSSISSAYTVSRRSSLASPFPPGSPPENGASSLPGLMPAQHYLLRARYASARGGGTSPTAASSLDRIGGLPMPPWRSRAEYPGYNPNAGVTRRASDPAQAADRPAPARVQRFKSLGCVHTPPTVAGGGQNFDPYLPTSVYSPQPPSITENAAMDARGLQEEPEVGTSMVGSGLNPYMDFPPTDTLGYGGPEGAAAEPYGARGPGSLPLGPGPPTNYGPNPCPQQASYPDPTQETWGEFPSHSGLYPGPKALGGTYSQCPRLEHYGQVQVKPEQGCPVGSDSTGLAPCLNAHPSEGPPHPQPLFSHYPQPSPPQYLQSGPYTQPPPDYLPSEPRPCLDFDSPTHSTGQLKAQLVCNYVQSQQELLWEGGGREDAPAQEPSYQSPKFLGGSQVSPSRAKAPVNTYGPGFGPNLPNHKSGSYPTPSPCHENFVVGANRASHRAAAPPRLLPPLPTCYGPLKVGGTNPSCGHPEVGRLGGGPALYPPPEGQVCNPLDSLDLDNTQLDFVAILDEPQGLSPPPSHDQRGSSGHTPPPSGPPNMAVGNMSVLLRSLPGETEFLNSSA
The experiment in a line: Inhibition of GLI1 (unknown origin) transcriptional activity.

Test [2] addresses T1, Zinc finger protein GLI1. The test can be described thus: Inhibition of GLI1-mediated transcriptional activity in human HaCaT cells coexpressing luciferase.

For orientation: IC50 means the concentration needed to halve the response being measured. A low value points to greater potency. Molecule `C[C@@]12C[C@H]3OC(=O)[C@@H]1CO[C@]14O[C@@]5([C@H]2C1=O)[C@@]3(C)OC(=O)[C@@]5(O)CC[C@H]1[C@H]4C[C@H]2O[C@]23CC=CC(=O)[C@]13C` came in with a half-inhibitory concentration (IC50) in test [1] of 0.7 µM.

With `C[C@]12C(=O)CC=CC1=CC[C@@H]1[C@@H]2CC[C@]2(O)C(=O)O[C@@]3(C)[C@H]4C[C@]5(C)[C@@H](CO[C@@]16O[C@@]32[C@H]5C6=O)C(=O)O4`, half-maximal inhibition in test [1] (IC50) required 4.2 µM.

In the case of `O[C@H]1[C@H]2c3cc4c(cc3CN3CCC(=C[C@@H]1O)[C@H]23)OCO4` [9,10-(methylenedioxy)-3,12-didehydrogalanthan-1alpha,2beta-diol], the IC50 in test [2] was 19 µM.

The molecule `CO[C@H]1C=C[C@@]23c4cc5c(cc4CN(C[C@@H]2O)[C@H]3C1)OCO5` [CHEBI:3914] gave an IC50 in test [2] of 4.7 µM.

On to `C[C@]12C(=O)C=CCC1=CC[C@@H]1[C@@H]2CC[C@]2(O)C(=O)O[C@@]3(C)[C@H]4C[C@]5(C)[C@@H](CO[C@@]16O[C@@]32[C@H]5C6=O)C(=O)O4` [NSC-287088], for which the concentration for half-maximal inhibition (IC50) in test [1] worked out at 0.6 µM.
